# According to US4716150A, “Synthetic peptides and use thereof in preparing calmodulin antisera” (Vanderbilt University, priority 1985, dated 1987):
# Experiments:
# intact calmodulin [1] = details: cited from earlier work
# anti-calmodulin serum = details: one antiserum; vertebrate calmodulin residues 137 to 143; cited from earlier work
# intact calmodulin [2] = assay: Injection of immunogen into laboratory rabbits to elicit antisera against calmodulin; type: in vivo; details: merely injecting calmodulin into laboratory rabbits
# Source text: Using one of the rabbit antisera, we proceeded to test peptide segments encompasssing the entire calmodulin molecule to locate one or more immunoreactive sites in the protein. See Van Eldik, L. J. and Watterson D. M. "Reproducible Production of Antiserum against Vertebrate Calmodulin and Determination of the Immunoreactive Site" Journal of Biological Chemistry Volume 256 (9), pp. 4205-4210 (1981). Upon completion of these studies we proposed than an immunoreactive site of calmodulin is contained in an 18 residue region (residues 127-144) within the COOH-terminal domain of calmodulin.
# However, although the minimal immunoreactive heptapeptide site of calmodulin met both of the above requirements, we were unable to produce anti-calmodulin sera when we injected laboratory rabbits with a synthetic heptapeptide corresponding to the immunoreactive site of the protein. […] Van Eldik, et al. "Elucidation of a Minimal Immunoreactive Site of Vertebrate Calmodulin" (cited above).
Substance,reactivity of the elicited antibodies (intact calmodulin [1]; antibodies from injected rabbits tested against synthetic heptapeptide and intact calmodulin),antibody response in rabbits (immunogenicity) (intact calmodulin [1]; laboratory rabbits injected with synthetic heptapeptide),immunoreactivity with anti-calmodulin serum compared with the entire protein (anti-calmodulin serum),anti-calmodulin serum titer after injection (intact calmodulin [2])
asparagine-tyrosine-glutamic acid-glutamic acid-phenylalanine-valine-glutamine [synthetic heptapeptide],reacted with the synthetic heptapeptide but not with intact calmodulin,elicited an antibody response,as immunoreactive as the entire 148-residue protein,
calmodulin,,,,inability to develop an anti-calmodulin serum of useful titer
